Assay results published in the NIST ThermoML archive (doi:10.1021/je501041r).

Experiment: xn = mol fraction of the nth substance listed
Conditions: 101 kPa, Liquid; for viscosity: Capillary tube (Ostwald / Ubbelohde) method; for mass density: Vibrating tube method

CCCCCCCO [heptan-1-ol] + CC(C)CC(C)(C)C
Conditions | mass density [kg/m3] | viscosity [mPa·s]
298.15 K, x2 = 0 | 818.82 | 6.004
298.15 K, x2 = 0.1003 | 804.69 | 4.442
298.15 K, x2 = 0.2002 | 790.62 | 3.258
298.15 K, x2 = 0.3002 | 776.7 | 2.408
298.15 K, x2 = 0.3999 | 763.07 | 1.793
298.15 K, x2 = 0.5 | 749.79 | 1.349
298.15 K, x2 = 0.6 | 736.64 | 1.059
298.15 K, x2 = 0.6999 | 723.94 | 0.827
298.15 K, x2 = 0.7999 | 711.51 | 0.672
298.15 K, x2 = 0.8999 | 699.33 | 0.557
298.15 K, x2 = 0.92 | 697.03 | –
298.15 K, x2 = 0.94 | 694.61 | –
298.15 K, x2 = 0.9599 | 692.3 | –
303.15 K, x2 = 0 | 815.3 | 5.079
303.15 K, x2 = 0.1003 | 801.1 | 3.807
303.15 K, x2 = 0.2002 | 786.96 | 2.834
303.15 K, x2 = 0.3002 | 772.96 | 2.126
303.15 K, x2 = 0.3999 | 759.26 | 1.597
303.15 K, x2 = 0.5 | 745.92 | 1.224
303.15 K, x2 = 0.6 | 732.7 | 0.988
303.15 K, x2 = 0.6999 | 719.94 | 0.782
303.15 K, x2 = 0.7999 | 707.45 | 0.627
303.15 K, x2 = 0.8999 | 695.21 | 0.524
303.15 K, x2 = 0.92 | 692.88 | –
303.15 K, x2 = 0.94 | 690.48 | –
303.15 K, x2 = 0.9599 | 688.17 | –
308.15 K, x2 = 0 | 811.75 | 4.374
308.15 K, x2 = 0.1003 | 797.48 | 3.283
308.15 K, x2 = 0.2002 | 783.26 | 2.518
308.15 K, x2 = 0.3002 | 769.2 | 1.881
308.15 K, x2 = 0.3999 | 755.43 | 1.437
308.15 K, x2 = 0.5 | 742.02 | 1.13
308.15 K, x2 = 0.6 | 728.74 | 0.913
308.15 K, x2 = 0.6999 | 715.91 | 0.714
308.15 K, x2 = 0.7999 | 703.35 | 0.587
308.15 K, x2 = 0.8999 | 691.05 | 0.496
308.15 K, x2 = 0.92 | 688.71 | –
308.15 K, x2 = 0.94 | 686.3 | –
308.15 K, x2 = 0.9599 | 683.98 | –
313.15 K, x2 = 0 | 808.17 | 3.8
313.15 K, x2 = 0.1003 | 793.83 | 2.875
313.15 K, x2 = 0.2002 | 779.54 | 2.217
313.15 K, x2 = 0.3002 | 765.4 | 1.679
313.15 K, x2 = 0.3999 | 751.57 | 1.298
313.15 K, x2 = 0.5 | 738.08 | 1.018
313.15 K, x2 = 0.6 | 724.74 | 0.825
313.15 K, x2 = 0.6999 | 711.84 | 0.67
313.15 K, x2 = 0.7999 | 699.22 | 0.55
313.15 K, x2 = 0.8999 | 686.85 | 0.465
313.15 K, x2 = 0.92 | 684.51 | –
313.15 K, x2 = 0.94 | 682.09 | –
313.15 K, x2 = 0.9599 | 679.77 | –
318.15 K, x2 = 0 | 804.57 | 3.224
318.15 K, x2 = 0.1003 | 790.15 | 2.503
318.15 K, x2 = 0.2002 | 775.79 | 1.979
318.15 K, x2 = 0.3002 | 761.58 | 1.501
318.15 K, x2 = 0.3999 | 747.67 | 1.176
318.15 K, x2 = 0.5 | 734.12 | 0.934
318.15 K, x2 = 0.6 | 720.71 | 0.758
318.15 K, x2 = 0.6999 | 707.74 | 0.623
318.15 K, x2 = 0.7999 | 695.05 | 0.517
318.15 K, x2 = 0.8999 | 682.63 | 0.439
318.15 K, x2 = 0.92 | 680.27 | –
318.15 K, x2 = 0.94 | 677.84 | –
318.15 K, x2 = 0.9599 | 675.52 | –
323.15 K, x2 = 0 | 800.93 | 2.851
323.15 K, x2 = 0.1003 | 786.43 | 2.209
323.15 K, x2 = 0.2002 | 772 | 1.754
323.15 K, x2 = 0.3002 | 757.71 | 1.351
323.15 K, x2 = 0.3999 | 743.74 | 1.071
323.15 K, x2 = 0.5 | 730.12 | 0.859
323.15 K, x2 = 0.6 | 716.64 | 0.699
323.15 K, x2 = 0.6999 | 703.6 | 0.592
323.15 K, x2 = 0.7999 | 690.85 | 0.487
323.15 K, x2 = 0.8999 | 678.37 | 0.416
323.15 K, x2 = 0.92 | 675.99 | –
323.15 K, x2 = 0.94 | 673.57 | –
323.15 K, x2 = 0.9599 | 671.24 | –
